The experiment can be described thus: Binding of human sera to a glycan microarray, measured by fluorescent anti-human antibodies. As to conditions: human sera (n=10), FIG. 1. The text has this:
FIG. 1 provides an analysis of binding of human sera (n=10) to a glycan microarray measured by fluorescent anti-human antibodies.
To identify carbohydrates that are naturally or inherently antigenic to the human immune system, one can screen human serum antibodies against immobilized glycans (see FIG. 1). This may reveal carbohydrates, and/or carbohydrate arrangements which are recognised as “non-self”. […] By incorporating rhamnose, or a similar antigenic mimics into the natural oligomannose structure of gp120, the inherent tolerance to the (mannose) sugars of HIV may be overcome.
`OC[C@H]1O[C@H](O)[C@@H](O)[C@@H](O)[C@@H]1O` [alpha-D-Mannose]: the “antigenicity (human serum antibody reactivity against immobilized glycans)” value was “is not”.
To `C[C@H]1O[C@H](O)[C@@H](O)[C@@H](O)[C@@H]1O` [alpha-D-rhamnose, 6-deoxy-alpha-D-mannose] belongs “antigenic sugar”; to Man(α1-2)Man(α1-2)Man(α1-3)Man [D1], “naturally antigenic”.
For “[Man(α1-2)Man(α1-6)][Man(α1-2)Man(α1-3)]Man [D2D3]” the value was “naturally antigenic”.

The values are drawn from patent publication US20110045021A1, “SUGAR IMMUNOGENS” (United Therapeutics Corporation, priority 2007, published 2011).
